# Measurements taken from US20110152223A1, “THERAPEUTIC AGENT FOR ANCA-RELATED VASCULITIS” (priority 2008, published 2011).
# Columns and labels:
# Assay type in all cases: in vivo
# Foxp3 = assay: mRNA expression level of Foxp3 in the kidneys of SCG/Kj mice (quantitative real-time PCR); conditions: 5% EPA-E diet from seven weeks old until completed 11th week of age
# Method: (§1) SCG/Kj mice (seven weeks old) were divided into three groups comprising 6 or 7 animals each, and fed under the same conditions as Example 1 until they completed their 11th week of age. The mRNA expression levels of PD-1, PD-L1, PD-L2, Foxp3, and CTLA4 in the kidneys, lungs and spleens of the mice were evaluated.
# (§2) A frozen kidney was homogenized in a TRIzol® reagent (Invitrogen, Carlsbad, Calif.). Total RNA was prepared from the homogenate, and purified using PureLink Micro-to-Midi Total RNA Purification System (Invitrogen). SuperScript™ III first-strand synthesis system (Invitrogen) was used to prepare cDNA from the purified total RNA, and quantitative real-time PCR was conducted with ABI Prism® 7000 (Applied Biosystems, Foster City, Calif.). For primers and probes for PCR, TaqMan® gene expression assays (Applied Biosystems) were used.
# MPO-ANCA = MPO-ANCA in the serum of SCG/Kj mice by ELISA (ANCA production); conditions: 5% EPA-E diet from seven weeks old until completed 11th week of age, absorbance at 405 nm
# Method: SCG/Kj mice (seven weeks old) were divided into three groups comprising 6 or 7 animals each, and fed under the same conditions as Example 1 until they completed their 11th week of age. Groups of B6 mice (two animals) and of SCG/Kj mice (15 weeks old; three animals) were further provided, and the five groups were subjected to the absorbance measurement for MPO-ANCA in the serum by an ELISA technique.
# The MPO-ANCA titer was measured by following a method having already been reported (Ishida-Okawara, A., Ito-Ihara, T., Muso, E. et al., Neutrophil contribution to the crescentic glomerulonephritis in SCG/Kj mice, Nephrol. Dial. Transplant. 2004; 19: 1708-1715). To put it briefly: Recombinant mouse MPO was coated onto an ELISA plate (Toyoshima Co., Tokyo, Japan) at 4° C. overnight. The plate was blocked with 1% bovine serum albumin (BSA) (Sigma), then incubated at room temperature for 1.5 hours in the presence of mouse serum (50-fold dilution).
# Bound MPO-ANCA was detected after an incubation for two hours in the presence of an alkaline phosphatase-labeled anti-mouse IgG antibody (Cappel). Subsequently, the secondary antibody as bound was quantified by measuring the absorbance at 405 nm after an incubation in the presence of 1 mg/ml of p-nitrophenyl phosphate (Sigma).
# PD-L2 = assay: mRNA expression level of PD-L2 in the kidneys of SCG/Kj mice (quantitative real-time PCR); conditions: 5% EPA-E diet from seven weeks old until completed 11th week of age
# Method: as §1, §2
# CTLA4 = assay: mRNA expression level of CTLA4 in the kidneys of SCG/Kj mice (quantitative real-time PCR); conditions: 5% EPA-E diet from seven weeks old until completed 11th week of age
# Method: as §1, §2
# PD-1 = assay: mRNA expression level of PD-1 in the kidneys of SCG/Kj mice (quantitative real-time PCR); conditions: 5% EPA-E diet from seven weeks old until completed 11th week of age
# Method: as §1, §2
# PD-L1 = assay: mRNA expression level of PD-L1 in the kidneys of SCG/Kj mice (quantitative real-time PCR); conditions: 5% EPA-E diet from seven weeks old until completed 11th week of age
# Method: as §1, §2
# SCG/Kj mice = assay: Action of EPA on the survival rate of SCG/Kj mice as an ANCA model; conditions: SCG/Kj mice fed 5% diet in a free-feeding state from seven weeks old
# From the text: SCG/Kj mice (seven weeks old) as a spontaneous ANCA vasculitis/nephritis model (Nippon Kayaku Co., Ltd.) were divided into three groups comprising 6 or 7 animals each, and fed on (1) fish meal-free feed F1 (Funakoshi Co., Ltd.) (control group), (2) 5% corn oil diet (manufactured by Sigma Corporation) (corn oil group), or (3) 5% EPA-E diet (diet F1 with 5% EPA-E added thereto) (EPA group) in a free-feeding state so as to observe the survival rate.
smiles,measurement,setting,value
"CC/C=C\C/C=C\C/C=C\C/C=C\C/C=C\CCCC(=O)OCC [EPA-E, ethyl icosapentate ester]",Foxp3 mRNA expression level in the kidney as compared with the control group,Foxp3,significantly increased
same,ANCA levels relative to normal mice (B6),MPO-ANCA,comparable to those of the normal mice (B6)
same,ANCA production as compared with the control group and the corn oil group,MPO-ANCA,evidently suppressed
same,PD-L2 mRNA expression level in the kidney as compared with the control group,PD-L2,likely to be increased
same,CTLA4 mRNA expression level in the kidney as compared with the control group,CTLA4,likely to be increased
same,PD-1 mRNA expression level in the kidney as compared with the control group,PD-1,likely to be increased
same,PD-L1 mRNA expression level in the kidney as compared with the control group,PD-L1,likely to be increased
same,age at which the survival rate began to decrease,SCG/Kj mice,about 15 weeks old
same,survival-prolonging effect,SCG/Kj mice,has a survival-prolonging effect
